From US9133179B2, “2-methoxy-pyridin-4-yl-derivatives” (Actelion Pharmaceuticals Ltd., priority 2011, dated 2015)

Columns and labels:
[1] = biological target: T1, human S1P1 (EDG1) receptor (Homo sapiens, UniProt P21453); experiment: S1P1 β-arrestin recruitment (Tango) assay to determine EC50 values; assay type: cell-based; conditions: Tango-EDG1 bla U2OS cells, 16 h incubation
T1 construct: host or cells: U2OS (Tango EDG1-bla U2OS)
Source text: S1P1 β-Arrestin Recruitment (Tango) Assay to Determine EC50 Values
Upon ligand activation, G protein-coupled receptors (GPCR) trigger two pathways that independently transduce signals to the cell: one through heterotrimeric GTP-binding proteins (G proteins) and one through β-arrestins. Agonist-induced GPCRs recruit β-arrestin proteins, which then bind to the carboxy-terminal domain of ligand-activated GPCRs. The amount of β-arrestin recruitment can be used to assess the potency and efficacy of GPCR activating ligands.
To measure the potency and efficacy of compounds as S1P1 (EDG1) receptor agonists, Tango™-EDG1 bla U2OS cells (Invitrogen, USA, Catalog #K1520) are used. The Tango™ GPCR technology is based on GeneBLAzer β-lactamase reporter cell assays, which uses a mammalian-optimized β-lactamase reporter gene (bla) combined with a FRET-enabled substrate. The host cells, U2OS, stably express a human S1P1 (EDG1) receptor/transcription factor (TF) fusion protein. The cells also express a recombinant protease tagged β-arrestin protein, which is recruited to the S1P1 receptor upon ligand stimulation and specifically cleaves the S1P1-TF fusion protein. The released TF activates the β-lactamase (bla) reporter gene. To measure the reporter gene activity, cells are loaded with a fluorescent substrate containing two chemically coupled fluorophores, coumarin and fluorescein. […] In the presence of bla, the chemical bond is cleaved and FRET is inhibited. […] The amount of β-arrestin recruitment is proportional to the increase in blue fluorescence.
Tango™-EDG1 bla U2OS cells are cultivated in McCoy's 5A containing 10% dialyzed FBS, 0.1 mM NEAA, 25 mM HEPES, 1 mM sodium pyruvate, 1% Penicillin/Streptomycin, 200 μg/ml zeocin, 50 μg/ml hygromycin and 100 μg/ml geneticin (Invitrogen, USA). Cells are detached with trypsin, resuspended in medium and then counted.
Compounds (10 mM stock in DMSO) are diluted first in DMSO. The pre-diluted compounds solutions are then transferred into Assay Medium/0.1% fatty acid free BSA to reach a fourfold concentrated compound stock, which is applied to the cells to reach the final compound concentrations that range from 10 μM to 0.0005 nM (0.5% final DMSO). Cells are then incubated for 16 h at 37° C. and 5% CO2.

circulating lymphocytes = experiment: Assessment of in vivo efficacy: circulating lymphocytes after oral administration to Wistar rats; set-up: species or system rat; conditions: Rattus norvegicus, Lymphocyte; 6 h after oral administration of 10 mg/kg, normotensive male Wistar rats, compared to vehicle group; read-out: Lymphocyte counts
Procedure: Assessment of In Vivo Efficacy
The efficacy of the compounds of Formula (I) is assessed by measuring the circulating lymphocytes after oral administration of 3 to 30 mg/kg of a compound of Formula (I) to normotensive male Wistar rats. The animals are housed in climate-controlled conditions with a 12 h-light/dark cycle, and have free access to normal rat chow and drinking water. […] Full blood is subjected to hematology using Advia Hematology system (Bayer Diagnostics, Zurich, Switzerland).
All data are presented as mean±SEM. Statistical analyses are performed by analysis of variance (ANOVA) using Statistica (StatSoft) and the Student-Newman-Keuls procedure for multiple comparisons. The null hypothesis is rejected when p<0.05.

T1 sequence (P21453 whole entry): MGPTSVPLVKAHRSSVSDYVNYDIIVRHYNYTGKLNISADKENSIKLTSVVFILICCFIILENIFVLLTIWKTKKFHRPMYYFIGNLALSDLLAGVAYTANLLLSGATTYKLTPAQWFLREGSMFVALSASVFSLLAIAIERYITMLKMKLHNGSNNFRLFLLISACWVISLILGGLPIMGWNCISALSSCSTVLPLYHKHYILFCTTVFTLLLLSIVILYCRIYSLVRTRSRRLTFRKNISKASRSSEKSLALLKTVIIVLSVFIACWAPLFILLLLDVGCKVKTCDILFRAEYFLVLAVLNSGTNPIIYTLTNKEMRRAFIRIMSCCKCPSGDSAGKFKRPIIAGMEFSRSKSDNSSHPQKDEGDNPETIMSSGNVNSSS

Row | Compound | EC50 [1] [nM] | change in vivo at 10 mg/kg (circulating lymphocytes) [%]
1 | CCc1cc(-c2noc(-c3cc(OC)nc(C4CCCC4)c3)n2)cc(C)c1OCCNC(CO)CO [Example 25, 2-((2-(4-(5-(2-Cyclopentyl-6-methoxypyridin-4-yl)-1,2,4-oxadiazol-3-yl)-2-ethyl-6-methylphenoxy)ethyl)amino)propane-1,3-diol] | 4.23 | 
2 | CCc1cc(-c2nnc(-c3cc(OC)nc(C4CCCC4)c3)o2)cc(C)c1OC[C@@H](O)CNC(=O)CCC(=O)O [Example 66] | 0.05 | 
3 | CCc1cc(-c2nc(-c3cc(OC)nc(C4CCCC4)c3)no2)cc(C)c1OCCCNCC(=O)O [Example 59, 2-((3-(4-(3-(2-Cyclopentyl-6-methoxypyridin-4-yl)-1,2,4-oxadiazol-5-yl)-2-ethyl-6-methylphenoxy)propyl)amino)acetic acid] | 2.7 | -82
4 | CCc1cc(-c2nnc(-c3cc(OC)nc(C4CCCC4)c3)o2)cc(C)c1OCCCC(=O)O [Example 61, 4-(4-(5-(2-Cyclopentyl-6-methoxypyridin-4-yl)-1,3,4-oxadiazol-2-yl)-2-ethyl-6-methylphenoxy)butanoic acid] | 0.1 | -27
5 | CCc1cc(-c2nc(-c3cc(OC)nc(C4CCCC4)c3)no2)cc(C)c1OCCNCC(=O)O [Example 55, 2-((2-(4-(3-(2-Cyclopentyl-6-methoxypyridin-4-yl)-1,2,4-oxadiazol-5-yl)-2-ethyl-6-methylphenoxy)ethyl)amino)acetic acid] | 0.1 | -72
6 | CCc1cc(-c2noc(-c3cc(OC)nc(C4CCCC4)c3)n2)cc(C)c1OCCCNC(=O)CO [Example 29, N-(3-(4-(5-(2-Cyclopentyl-6-methoxypyridin-4-yl)-1,2,4-oxadiazol-3-yl)-2-ethyl-6-methylphenoxy)propyl)-2-hydroxyacetamide] | 0.265 | -76
7 | CCc1cc(-c2noc(-c3cc(OC)nc(C4CCCC4)c3)n2)cc(C)c1OC[C@@H](O)CNC(=O)CCC(=O)O [Example 15, (S)-4-((3-(4-(5-(2-Cyclopentyl-6-methoxypyridin-4-yl)-1,2,4-oxadiazol-3-yl)-2-ethyl-6-methylphenoxy)-2-hydroxypropyl)amino)-4-oxobutanoic acid] | 0.02 | -55
8 | COc1cc(-c2nc(-c3cc(C)c(OCC(=O)NCCO)c(Cl)c3)no2)cc(C2CCCC2)n1 [Example 42, 2-(2-Chloro-4-(5-(2-cyclopentyl-6-methoxypyridin-4-yl)-1,2,4-oxadiazol-3-yl)-6-methyl-phenoxy)-N-(2-hydroxyethyl)acetamide] | 0.4 | -75
9 | COc1cc(-c2nc(-c3cc(Cl)c(OCCNCCC(=O)O)c(OC)c3)no2)cc(C2CCCC2)n1 [Example 37, 3-((2-(2-Chloro-4-(5-(2-cyclopentyl-6-methoxypyridin-4-yl)-1,2,4-oxadiazol-3-yl)-6-methoxyphenoxy)ethyl)amino)propanoic acid] | 0.2 | -71
10 | CCc1cc(-c2noc(-c3cc(OC)nc(C4CCCC4)c3)n2)cc(C)c1OC[C@@H](O)CN(C)CC(=O)O [Example 11, (S)-2-((3-(4-(5-(2-Cyclopentyl-6-methoxypyridin-4-yl)-1,2,4-oxadiazol-3-yl)-2-ethyl-6-methylphenoxy)-2-hydroxypropyl)(methyl)amino)acetic acid] | 0.2 | -60
11 | CCc1cc(-c2noc(-c3cc(OC)nc(C4CCCC4)c3)n2)cc(C)c1OCCCC(=O)NCCO [Example 46, 4-(4-(5-(2-Cyclopentyl-6-methoxypyridin-4-yl)-1,2,4-oxadiazol-3-yl)-2-ethyl-6-methylphenoxy)-N-(2-hydroxyethyl)butanamide] | 1.8 | 
12 | COc1cc(-c2nc(-c3cc(C)c(OCCCC(=O)O)c(Cl)c3)no2)cc(C2CCCC2)n1 [Example 40, 4-(2-Chloro-4-(5-(2-cyclopentyl-6-methoxypyridin-4-yl)-1,2,4-oxadiazol-3-yl)-6-methylphenoxy)butanoic acid] | 0.05 | -65
13 | COc1cc(-c2nc(-c3cc(Cl)c(OCCCNC(=O)CO)c(OC)c3)no2)cc(C2CCCC2)n1 [Example 38, N-(3-(2-Chloro-4-(5-(2-cyclopentyl-6-methoxypyridin-4-yl)-1,2,4-oxadiazol-3-yl)-6-methoxyphenoxy)propyl)-2-hydroxyacetamide] | 0.893 | 
14 | CCc1cc(-c2noc(-c3cc(OC)nc(C4CCCC4)c3)n2)cc(C)c1OCCCNCC(O)CO (racemic) [Example 28, rac-3-((3-(4-(5-(2-Cyclopentyl-6-methoxypyridin-4-yl)-1,2,4-oxadiazol-3-yl)-2-ethyl-6-methylphenoxy)propyl)amino)propane-1,2-diol] | 25.6 | 
15 | CCc1cc(-c2noc(-c3cc(OC)nc(C4CCCC4)c3)n2)cc(C)c1OCCN(C)CCC(=O)O [Example 17, 3-((2-(4-(5-(2-Cyclopentyl-6-methoxypyridin-4-yl)-1,2,4-oxadiazol-3-yl)-2-ethyl-6-methylphenoxy)ethyl)(methyl)amino)propanoic acid] | 0.2 | 
16 | CCc1cc(-c2nc(-c3cc(OC)nc(C4CCCC4)c3)no2)cc(C)c1OCCN1CC(C(=O)O)C1 [Example 58, 1-(2-(4-(3-(2-Cyclopentyl-6-methoxypyridin-4-yl)-1,2,4-oxadiazol-5-yl)-2-ethyl-6-methylphenoxy)ethyl)azetidine-3-carboxylic acid] | 0.2 | 
17 | CCc1cc(-c2noc(-c3cc(OC)nc(C4CCCC4)c3)n2)cc(C)c1OCCCN1CC(C(=O)O)C1 [Example 22, 1-(3-(4-(5-(2-Cyclopentyl-6-methoxypyridin-4-yl)-1,2,4-oxadiazol-3-yl)-2-ethyl-6-methylphenoxy)propyl)azetidine-3-carboxylic acid] | 2.95 | 
18 | CCc1cc(-c2noc(-c3cc(OC)nc(C4CCCC4)c3)n2)cc(C)c1OCCNCCO [Example 23, 2-((2-(4-(5-(2-Cyclopentyl-6-methoxypyridin-4-yl)-1,2,4-oxadiazol-3-yl)-2-ethyl-6-methylphenoxy)ethyl)amino)ethanol] | 24.7 | 
19 | CCc1cc(-c2noc(-c3cc(OC)nc(C4CCCC4)c3)n2)cc(C)c1OCCCNC(CO)CO [Example 26, 2-((3-(4-(5-(2-Cyclopentyl-6-methoxypyridin-4-yl)-1,2,4-oxadiazol-3-yl)-2-ethyl-6-methylphenoxy)propyl)amino)propane-1,3-diol] | 15.1 | 
20 | CCc1cc(-c2noc(-c3cc(OC)nc(C4CCCC4)c3)n2)cc(C)c1OCCCNCCO [Example 24, 2-((3-(4-(5-(2-Cyclopentyl-6-methoxypyridin-4-yl)-1,2,4-oxadiazol-3-yl)-2-ethyl-6-methylphenoxy)propyl)amino)ethanol] | 69 | 
21 | CCc1cc(-c2nc(-c3cc(OC)nc(C4CCCC4)c3)no2)cc(C)c1OCCN(C)CC(=O)O [Example 56, 2-((2-(4-(3-(2-Cyclopentyl-6-methoxypyridin-4-yl)-1,2,4-oxadiazol-5-yl)-2-ethyl-6-methylphenoxy)ethyl)(methyl)amino)acetic acid] | 0.1 | 
22 | CCc1cc(-c2nnc(-c3cc(OC)nc(C4CCCC4)c3)o2)cc(C)c1OC[C@@H](O)CNCCO [Example 64, (S)-1-(4-(5-(2-Cyclopentyl-6-methoxypyridin-4-yl)-1,3,4-oxadiazol-2-yl)-2-ethyl-6-methylphenoxy)-3-((2-hydroxyethyl)amino)propan-2-ol] | 3 | 
23 | CCc1cc(-c2nnc(-c3cc(OC)nc(C4CCCC4)c3)o2)cc(C)c1OC[C@@H](O)CNC(CO)CO [Example 65] | 0.7 | 
24 | CCc1cc(-c2noc(-c3cc(OC)nc(C4CCCC4)c3)n2)cc(C)c1OC[C@@H](O)CNC(=O)CC(=O)O [Example 14] | 0.03 | 
25 | CCc1cc(-c2noc(-c3cc(OC)nc(C4CCCC4)c3)n2)cc(C)c1OCCCNCCC(=O)O [Example 19, 3-((3-(4-(5-(2-Cyclopentyl-6-methoxypyridin-4-yl)-1,2,4-oxadiazol-3-yl)-2-ethyl-6-methylphenoxy)propyl)amino)propanoic acid] | 0.4 | 
